In US5447916A, “Peptoid alpha-1 adrenergic receptor ligands” (Chiron Corporation, priority 1993, dated 1995):

System: α1-adrenergic receptors
Assay: 3H-Prazosin binding assay on rat forebrain membranes
Conditions: for Percent Inhibition: Inhibition at 100 nM (100 nM receptor concentration as printed), 3H-Prazosin; for IC50 / Ki: 0.5 nM 3H-Prazosin; for Ki: 1 hr at room temperature
Procedure: Preparation of Rat Forebrain Membranes:
Rat brains were purchased from Animal Technologies, Tyler, Tex., and shipped on wet ice within 24 hours after being harvested. The forebrains were dissected and homogenized with a Tissue Tearor in 50 mM Tris, pH 7.5, containing 20 mM NaCl, 5 mM EGTA, 2 mM MgCl2, 21 μg/mL aprotinin, 0.5 mg/L leupeptin, 0.7 mg/L pepstatin, 0.2 mM PMSF. Each brain is homogenized in approximately 5 mL of this buffer. The homogenate is then spun at 1000 RPM (75×g) in a Sorval RC-5B centrifuge (SS-34 rotor) for 10 min. The pellets are discarded and the supernatants then respun at 17,000 RPM (22,500×g) for 15 min. The pellets were then resuspended in the same buffer as above containing 5 mM EDTA and no MgCl2 (1 brain/mL). Membranes were stored in 1 mL aliquots at -70° C.
Thawed membranes were dispersed into a homogenous solution by passing them through a 22 gauge needle 5 times. To initiate the assay, 50 μL of membrane were dispensed into a plastic 12×75 mm tube containing 1 mL of 50 mM Tris, pH 7.5, 0.5 nM ^3 H-Prazosin (New England Nuclear), and the compounds to be tested. Nonspecific binding was determined as ^3 H-Prazosin bound in the presence of 5 μM unlabeled prazosin. Incubation was for 1 hr at room temperature. Unbound radioactivity was removed by rinsing the membranes on Whatman GF/B glass fiber filters. Each filter was washed 3 times with 3 mL of 50 mM Tris, pH 7.5, 4° C. Filters were soaked overnight in 5 mL of Beckman ReadySafe scintillation cocktail then counted for one minute in a Wallac 1409 liquid scintillation counter.

Compound	Percent Inhibition [%]	IC50 [nM]	Ki [nM]
Nzhphe-Nbiph-Nhphe [Nzhphe--Nbiph--Nhphe]	53.9		
NC(=O)CN(CCc1ccccc1)C(=O)CN(C(=O)CNCCc1ccc(O)cc1)c1ccc(-c2ccccc2)cc1 [Nhtyr--Nbiph--Nhphe, Nhtyr-Nbiph-Nhphe]		19	7
Nphtyr-Nbiph-Nhphe [Nphtyr--Nbiph--Nhphe]	22.7		
Noco-Nbiph-Nhphe [Noco--Nbiph--Nhphe]	23.6		
Nhtyr-Npop-Nhphe [Nhtyr--Npop--Nhphe]		490	140
Nhtyr-Nbiph-Nphphe [Nhtyr--Nbiph--Nphphe]	48.3		

The remaining lines, values ahead:

Percent Inhibition [%]	IC50 [nM]	Ki [nM]	Compound
	1400	313	Nhtyr--Nbiph--Nbhm
20.3			Nhtyr- Npbiph-Nhphe [Nhtyr--Npbiph--Nhphe]
24.8			Bz-Nhphe-Nbiph-Nhphe [Bz--Nhphe--Nbiph--Nhphe]
21.2			Nhtyr-Nbiph-Nmhphe [Nhtyr--Nbiph--Nmhphe]
